Values of other authors as cited in patent US8420699B1, “Composition and methods of treatment using deionized and ozonated solution” (priority 2002, dated 2013).

SMILES: O=[O+][O-] [ozone]
- half-life of ozone (at 68° F.): 45 min
- concentrated effectiveness relative to initial value (in two hours after generation): 16 % of its initial value
